Key:
[1] = Sensory evaluation of chewing gums (quality and time-intensity of sweetness); assay type: in vivo; details: in chewing gum, versus aspartame or sucralose
Description: Chewing gums sweetened individually with monatin, aspartame and sucralose were prepared in stick gum format of mint flavor. The gums were prepared to be iso-sweet and evaluated for quality of sweet taste and time-intensity of sweetness delivery.
A standard method of manufacture was adopted for all three gum formulations, as described.
The method of gum manufacture was as follows: • Pre-warm the gum base to 40-45° C. and then add to Z-blade mixer and mix • Sieve sorbitol powder • Remove a portion of the sorbitol, disperse sweetener in that portion and mix thoroughly • Return sweetener/sorbitol mix to remaining bulk of sorbitol powder and mix thoroughly • Mix lycasin and glycerol into a bowl and pre-heat to 50° C. • Add sorbitol powder to the Z-blade mixer containing the gum base • Add lycasin/glycerol and flavor to the Z-blade and mix for 20 minutes • Remove gum from Z-blade mixer • Roll to a thickness of 1.5 mm using a mechanical roller • Dust with talc in the ratio 3 g talc to 100 g gum • Cut into sticks measuring 19 mm×73 mm • Wrap individual sticks in foil Sensory Evaluation
Chewing gum compositions were evaluated by a panel of trained sensory assessors (n 4), all very experienced in the formal sensory evaluation of chewing gums, including an evaluation for time/intensity parameters. Qualitative and temporal characteristics of the gum's flavor and sweetness were evaluated.

[2] = Sensory evaluation of sweeteners in iced tea; assay type: in vivo; details: 200 ml serving, aspartame 450 ppm, monatin 40 ppm, panel n=6
Description: Monatin formulations, including R,R monatin or R,R monatin/erythritol combinations, were assessed relative to other known sweeteners (aspartame and sucralose) in iced tea. The key sensory parameters assessed included sweetness quality, aftertaste, bitter taste and its aftertaste. Qualitative evaluation has been carried out.
An ice tea formulation was developed to evaluate sweetener performance (Table 7).
Sweeteners were added to tea at the following concentrations:
The evaluation of ice tea drinks was carried out by a panel (n=6) of experienced sensory evaluators.

[3] = Stability of monatin at high temperature (80° C.) and neutral pH, LC-MS; assay type: physicochemical; details: pH 7, 75 ppm, after 7-35 days, synthetic ~96% 2R,4R/2S,4S
Description: A 100 milliliter solution of 75 ppm monatin at pH 7 was used as a stock solution. The synthetic monatin sample contained approximately 96% of the 2R,4R/2S,4S enantiomeric pair and 4% of the 2R,4S/2S,4R enantiomeric pair. Samples were incubated at 80° C. and pH 7 for the duration of the experiment and samples were withdrawn at 0, 1, 2, 3, 4 hours and 1, 2, 4, 7, 14, 21 and 35 days. All experimental conditions were run in duplicate.
A response curve was established for both detected diastereomer peaks of the synthetic monatin. A range of 5-150 ppm was bracketed with the synthetic monatin standard dissolved in DI water. Separation of the two diastereomer peaks was accomplished using a 3.9×150 mm Novapak C18 (Waters Corporation) HPLC column. Ultraviolet-Visible (UV) and Mass Spectrometer (MS) detectors were used in series for detection and quantitation. Monatin and its lactone peak each have a UVmax at 279 nm that aided in precise detection. Quantification was done by acquiring Selected Ion Monitoring (SIM) scan of 293.3 m/z and 275.3 m/z in positive-ion electrospray mode.

[4] = Quantitative synergy of monatin in blends with other sweeteners; assay type: in vivo
[5] = Stability of monatin at pH 3 with increasing temperatures; assay type: physicochemical; details: synthetic monatin
Description: A sample of synthetic monatin was subjected to pH 3 at temperatures of 25° C., 50° C. and 100° C. At room temperature and pH 3, a 14% loss in monatin was observed over a period of 48 hours. This loss was attributed to lactone formation. At 50° C. and pH 3, a 23% loss in monatin was observed over a period of 48 hours. This loss was attributed to lactone formation and the buildup of an unknown compound after about 15.5 minutes. […] The major detectable component was an unknown at 15.5 minutes.

degree of degradation [3]: insignificant | loss in monatin ([5]; 50° C., pH 3, 48 hours): 23% | loss in monatin ([5]; 100° C., pH 3, after 24 hours): nearly all monatin was lost | loss in monatin ([5]; room temperature (25° C.), pH 3, 48 hours): 14%
SMILES: NC(CC(O)(Cc1c[nH]c2ccccc12)C(=O)O)C(=O)O (centres unmarked) [Monatin, 2-hydroxy-2-(indol-3-ylmethyl)-4-aminoglutaric acid]
time/intensity profile for sweetness [1]: very clearly superior to either aspartame or sucralose | Comments: flavor enhancement (lemon flavor notes) [2]: enhanced the lemon flavor notes | quantitative synergy with cyclamates ([4]; blend with cyclamates): quantitatively synergistic | quantitative synergy with other sweeteners ([4]; with aspartame, saccharin, acesulfame-K, sucralose, or carbohydrate sweeteners): no significant quantitative synergy
